Assay results reported in patent US20090053722A1, “SDAD ASSAY AND USES THEREOF” (priority 2007, published 2009).
Several values for one entry are separate records, joined by “and”; a condition that tells them apart may be missing. Equal entries are not always repeated. Entries after “also recorded” stand apart in the source; their conditions may differ. Where two headings read alike, the source gives them in different places.

Experiments:
human sperm [1] = tested on: human sperm
Method: (§1) Sperm were isolated from the seminal plasma as previously described in Brown et al., 1995. The sperm pellet was resuspended in phosphate buffered saline (PBS), pH=7.4, and divided into 4 aliquots. Each aliquot (equal sperm concentrations) was incubated at 37° C. in PBS with H2O2 concentrations of 0, 10, 50, and 100 μM for 15 min and 1 hr. All aliquots were divided into 2 portions. One portion was used to determine LPO. The remaining portion was centrifuged at 1500 g for 15 min. at room temperature, the sperm in the pellet resuspended and analyzed in the HSAA.

sperm = conditions: comet assay; cited from earlier work
human sperm [2] = tested on: human sperm; remark: listed apart in the source
Method: as §1
The HSAA was performed as described by Brown et al. 1995. Briefly, sperm are washed and permeabilized using lysolecithine.
(§2) In a micro-centrifuge tube, the reaction mix was prepared; 8 μl of sperm suspension (200,000 sperm) was added to 100 μLof frog egg extract that contained 8 μl of ^3H-TTP (8 μCi). At 5 and 15 min, and 2 and 3 hr incubation times in the egg extract, 5 μl aliquots were taken, wet mounts prepared, and phase contrast microscopy used to determine the percentage of sperm that were fully decondensed and recondensed, respectively, scoring 50 nuclei per slide. At the 5 and 15 min, and 2 and 3 hr time points, 25 μl aliquots of the reaction mix was removed and mixed with 75 μl PBS. Two 50 μl cytopreps were made for each aliquote as described by Brown et al., 1992. The dried cytopreps were fixed in one part acetic acid, and three parts cold methanol, and Giemsa stained for 1 hr followed by a 10 min wash in Giemsa buffer. Slides were examined using light microscopy and analyzed using Metamorph software. Autoradiography was performed using cytoprep slides as described by Brown et al. 1995.
Sperm chromatin decondensation and nuclear recondensation were evaluated in sperm exposed to increasing concentrations of H2O2 for 15 min and 1 hr using the HSAA. Sperm were analyzed at different incubation times in the egg extract using the image analysis Methamorph software system. The sperm nuclear activation was scored in 5 categories (FIG. 2): 1) full decondensation: sperm diameter 25-30 μm (FIG. 2C), 2) partial decondensation: sperm diameter <25 μm (FIG. 2B), 3) non-decondensed (FIG. 2A), 4) hyperdecondensed: sperm diameter >(25-30 μm) [FIGS. 2b and c], and 5) full recondensation (FIGS. 2D and E).

human sperm [3] = tested on: human sperm; remark: listed apart in the source
Method: Thymidine incorporation into sperm was scored as follows: unlabeled (less than 5 black granules), medium label (from 5 to 25 black granules), and heavy label (more than 25 black granules). Each value is the mean±SD. […] (5a and 5b) ^3H-TTP incorporation after a 5 min incubation in the egg extract.
as §2
The DNA synthesis was determined by autoradiography as previously described in Materials and Methods.

[4] = 10 μM H2O2, 15 min and 1 hr exposures, 5 min incubation in egg extract
[5] = 10 μM H2O2, 15 min and 1 hr exposures, 15 min incubation in egg extract
[6] = 50 μM H2O2, 15 min exposure, 2 and 3 hr incubation in egg extract (combined)
[7] = 50 μM H2O2, 15 min exposure, 5 min incubation in egg extract
[8] = 50 μM H2O2, 15 min exposure, 15 min incubation in egg extract
[9] = 50 μM H2O2, 1 hr exposure, 2 and 3 hr incubation in egg extract (combined)
[10] = 50 μM H2O2, 1 hr exposure, 5 min incubation in egg extract
[11] = 50 μM H2O2, 1 hr exposure, 15 min incubation in egg extract
[12] = 100 μM H2O2, 15 min and 1 hr exposures, 5 min incubation in egg extract
[13] = 100 μM H2O2, 15 min exposure, 2 and 3 hr incubation in egg extract (combined)
[14] = 100 μM H2O2, 15 min exposure, 5 min incubation in egg extract
[15] = 100 μM H2O2, 15 min exposure, 15 min incubation in egg extract
[16] = 100 μM H2O2, 1 hr exposure, 2 and 3 hr incubation in egg extract (combined)
[17] = 100 μM H2O2, 1 hr exposure, 5 min incubation in egg extract
[18] = 100 μM H2O2, 1 hr exposure, 15 min incubation in egg extract
[19] = 50 μM H2O2, 15 min exposure, 3 hr incubation in egg extract
[20] = 50 μM H2O2, 1 hr exposure, 2 hr incubation in egg extract
[21] = 50 μM H2O2, 1 hr exposure, 3 hr incubation in egg extract
[22] = 100 μM H2O2, 15 min exposure, 3 hr incubation in egg extract
[23] = 100 μM H2O2, 1 hr exposure, 2 hr incubation in egg extract
[24] = 100 μM H2O2, 1 hr exposure, 3 hr incubation in egg extract

For OO [H2O2, hydrogen peroxide], the “lipid peroxidation (MDA and hydroxyalkenals), means compared to the untreated control sperm” value (human sperm [1]; 10, 50 and 100 μM H2O2, 1 hr exposure) is given as “significantly different”, the “lipid peroxidation (MDA and hydroxyalkenals), means compared to the untreated control sperm” value (human sperm [1]; 50 and 100 μM H2O2, 15 min exposure) is given as “significantly different” and the “H2O2 concentration at which induction of DNA fragmentation was significant” value (sperm) is given as 200 µM. The recondensed sperm (human sperm [2]; 10 μM H2O2, 15 min and 1 hr exposure, 2 and 3 hr incubation in egg extract (combined)) was 98±2%, the partially decondensed sperm (human sperm [2]; [4]) was “Approximately 30%” and the recondensed sperm (human sperm [2]; [4]) was “No recondensed sperm were observed”. The “sperm showing no decondensation” value (human sperm [2]; [4]) was 35-40%, the fully decondensed sperm (human sperm [2]; [5]) was “Approximately 94%” and the fully decondensed sperm (human sperm [2]; 10 μM H2O2, 15 min exposure, 5 min incubation in egg extract) was “Approximately 28±4%”. For the same compound, the recondensed sperm (human sperm [2]; 10 μM H2O2, 15 min exposure, 15 min incubation in egg extract) was “No recondensed sperm were observed”, the fully decondensed sperm (human sperm [2]; 10 μM H2O2, 1 hr exposure, 5 min incubation in egg extract) was ~30±6% and the non-decondensed sperm (human sperm [2]; 10 μM H2O2, both time points (15 min and 1 hr exposure), 15 min incubation in egg extract) was “Approximately 5%”. For the same compound, the hyper-decondensed sperm (human sperm [2]; 10 μM H2O2, 2 and 3 hr incubation in egg extract (combined)) was “No sperm were hyper-decondensed”, the hyperdecondensed sperm (human sperm [2]; 10 μM H2O2, 5 min incubation in egg extract) was “No sperm were hyperdecondensed” and the hyperdecondensed sperm (human sperm [2]; 10 μM H2O2, 15 min incubation in egg extract) was “No sperm were hyperdecondensed”. For the same compound, the partially decondensed sperm (human sperm [2]; 50 μM H2O2, 15 min and 1 hr exposures, 5 min incubation in egg extract) was “Approximately 1%”, the hyper-decondensed sperm (human sperm [2]; [6]) was 35.2% and the recondensed sperm (human sperm [2]; [6]) was 66±2.3%. For the same compound, the fully decondensed sperm (human sperm [2]; [7]) was 43.3±3.7%, the hyperdecondensed sperm (human sperm [2]; [7]) was 38.4% and the non-decondensed sperm (human sperm [2]; [7]) was 15±3%. The recondensed sperm (human sperm [2]; [7]) was “No recondensed sperm were observed”, the fully decondensed sperm (human sperm [2]; [8]) was 53±3% and the hyperdecondensed sperm (human sperm [2]; [8]) was 45.2%. For the same compound, the recondensed sperm (human sperm [2]; [8]) was “No recondensed sperm were observed”, the hyper-decondensed sperm (human sperm [2]; [9]) was 30±2% and the recondensed sperm (human sperm [2]; [9]) was 70±3%. The fully decondensed sperm (human sperm [2]; [10]) was 46.6±6%, the hyperdecondensed sperm (human sperm [2]; [10]) was 31±−4% and 31±4% and the non-decondensed sperm (human sperm [2]; [10]) was 18±4%. It also gave a recondensed sperm (human sperm [2]; [10]) of 5±3%, a fully decondensed sperm (human sperm [2]; [11]) of 58±2% and a hyperdecondensed sperm (human sperm [2]; [11]) of 30±2%. For the same compound, the recondensed sperm (human sperm [2]; [11]) was 10±2%, the non-decondensed sperm (human sperm [2]; [12]) was 10±2% and the partially decondensed sperm (human sperm [2]; [12]) was “Approximately 1%”. The hyper-decondensed sperm (human sperm [2]; [13]) was 45±2%, the recondensed sperm (human sperm [2]; [13]) was 57±2% and the fully decondensed sperm (human sperm [2]; [14]) was 56.6±4.7%. For the same compound, the hyperdecondensed sperm (human sperm [2]; [14]) was 26%, the recondensed sperm (human sperm [2]; [14]) was 8±2% and the fully decondensed sperm (human sperm [2]; [15]) was 48±1.5%. For the same compound, the hyperdecondensed sperm (human sperm [2]; [15]) was 37%, the recondensed sperm (human sperm [2]; [15]) was 15±3% and the hyper-decondensed sperm (human sperm [2]; [16]) was 45±3%. It also gave a recondensed sperm (human sperm [2]; [16]) of 54±2%, a fully decondensed sperm (human sperm [2]; [17]) of 64.5±4.5% and a hyperdecondensed sperm (human sperm [2]; [17]) of 11±4%. The recondensed sperm (human sperm [2]; [17]) was 15±2%, the fully decondensed sperm (human sperm [2]; [18]) was 47±2% and the hyperdecondensed sperm (human sperm [2]; [18]) was 33±3.5%. For the same compound, the recondensed sperm (human sperm [2]; [18]) was 20±2%, the “sperm nuclei with abnormal recondensation and nuclear arrest in the hyperdecondensed state” value (human sperm [2]; 50 and 100 μM H2O2, 3 hr incubation in egg extract) was 33-42% and the non-decondensed sperm (human sperm [2]; any other H2O2 concentrations (50, 100 μM) at any of the time points, 15 min incubation in egg extract) was “no sperm were non-decondensed”. The 3H-TTP incorporation (human sperm [3]; 10 μM H2O2, 15 min and 1 hr exposure, 2 and 3 hr incubations in frog egg extract) was “normal ^3H-TTP incorporation”, the “sperm positive for 3H-TTP incorporation” value (human sperm [3]; [4]) was “No sperm were positive for ^3H-TTP incorporation; also recorded: no incorporation of ^3H-TTP” and the “sperm positive for 3H-TTP incorporation” value (human sperm [3]; [5]) was “No sperm were positive for ^3H-TTP incorporation; also recorded: no incorporation of ^3H-TTP”. For the same compound, the “sperm heavily labeled by 3H-TTP” value (human sperm [3]; 10 μM H2O2, 15 min and 1 hr exposures, 2 hr incubation in egg extract) was 99±1%, the “sperm heavily labeled by 3H-TTP” value (human sperm [3]; 10 μM H2O2, 15 min and 1 hr exposures, 3 hr incubation in egg extract) was 98±2% and the “sperm with medium 3H-TTP labeling” value (human sperm [3]; 50 μM H2O2, 15 min exposure (first of '50 and 100 μM for 15 min and 1 hr, respectively'), 2 hr incubation in egg extract) was “approximately 14.5±4%”. For the same compound, the “sperm heavily labeled by 3H-TTP” value (human sperm [3]; [7]) was 10±3.5%, the “sperm with medium 3H-TTP labeling” value (human sperm [3]; [7]) was 18±3.5% and the “sperm heavily labeled by 3H-TTP” value (human sperm [3]; [8]) was 10±2%. For the same compound, the “sperm with medium 3H-TTP labeling” value (human sperm [3]; [8]) was “approximately 20±3%”, the “sperm heavily labeled by 3H-TTP” value (human sperm [3]; 50 μM H2O2, 15 min exposure, 2 hr incubation in egg extract) was 85±5% and the “sperm heavily labeled by 3H-TTP” value (human sperm [3]; [19]) was “approximately 78±6%”. For the same compound, the “sperm with medium 3H-TTP labeling” value (human sperm [3]; [19]) was “approximately 16.5±2%”, the “sperm heavily labeled by 3H-TTP” value (human sperm [3]; [10]) was 28±2% and the “sperm with medium 3H-TTP labeling” value (human sperm [3]; [10]) was 36±3%. The “sperm heavily labeled by 3H-TTP” value (human sperm [3]; [11]) was 17.5±7.5%, the “sperm with medium 3H-TTP labeling” value (human sperm [3]; [11]) was “Approximately 21±5%” and the “sperm heavily labeled by 3H-TTP” value (human sperm [3]; [20]) was 56.5±3%. For the same compound, the “sperm with medium 3H-TTP labeling” value (human sperm [3]; [20]) was “Approximately 36±2%”, the “sperm heavily labeled by 3H-TTP” value (human sperm [3]; [21]) was “Approximately 75±3%” and the “sperm with medium 3H-TTP labeling” value (human sperm [3]; [21]) was “Approximately 25±3%”. For the same compound, the “sperm with medium 3H-TTP labeling” value (human sperm [3]; 100 μM H2O2 (second of '50 and 100 μM for 15 min and 1 hr, respectively'), 2 hr incubation in egg extract) was ~43.5±5%, the “sperm heavily labeled by 3H-TTP” value (human sperm [3]; [14]) was 15±5% and the “sperm with medium 3H-TTP labeling” value (human sperm [3]; [14]) was “Approximately 25±5%”. For the same compound, the “sperm heavily labeled by 3H-TTP” value (human sperm [3]; [15]) was 50±5%, the “sperm with medium 3H-TTP labeling” value (human sperm [3]; [15]) was ~30±10% and the “sperm heavily labeled by 3H-TTP” value (human sperm [3]; 100 μM H2O2, 15 min exposure, 2 hr incubation in egg extract) was “Approximately 64±2%”. The “sperm heavily labeled by 3H-TTP” value (human sperm [3]; [22]) was ~85±5%, the “sperm with medium 3H-TTP labeling” value (human sperm [3]; [22]) was ~14.5±3% and the “sperm heavily labeled by 3H-TTP” value (human sperm [3]; [17]) was 31±3%. For the same compound, the “sperm with medium 3H-TTP labeling” value (human sperm [3]; [17]) was ~48±2%, the “sperm heavily labeled by 3H-TTP” value (human sperm [3]; [18]) was 45±9% and the “sperm with medium 3H-TTP labeling” value (human sperm [3]; [18]) was ~37±9%. The “sperm heavily labeled by 3H-TTP” value (human sperm [3]; [23]) was ~71±3%, the “sperm with medium 3H-TTP labeling” value (human sperm [3]; [23]) was ~28.5±2.5% and the “sperm heavily labeled by 3H-TTP” value (human sperm [3]; [24]) was ~60±4%. The “sperm with medium 3H-TTP labeling” value (human sperm [3]; [24]) was ~40±4%.
